Molecules are shown by their SMILES.

Assay type in all cases: functional
The test system of assay [1] is Mus musculus. Kind of assay: Antitumor activity was evaluated by the increase in life span (I.L.S) against IMC carcinoma in mice at a dose of 77.6 mg/kg.
The test system of assay [2] is Mus musculus. In words: Antitumor activity was evaluated by the change in life span (day) against IMC carcinoma in mice at a dose of 77.6 mg/kg.
Assay [3] has as its system Mus musculus. In words: Antitumor activity was evaluated by the change in body weight against IMC carcinoma in mice at a dose of 77.6 mg/kg.
The test system of assay [4] is Mus musculus. In words: Antitumor activity was evaluated by the increase in life span (I.L.S) against IMC carcinoma in mice at a dose of 9.0 mg/kg.
Assay [5] has as its system Mus musculus. Kind of assay: Antitumor activity was evaluated by the change in life span (day) against IMC carcinoma in mice at a dose of 9.0 mg/kg.
Assay [6] deals with Mus musculus. In words: Antitumor activity was evaluated by the change in body weight against IMC carcinoma in mice at a dose of 9.0 mg/kg.
Assay [7] relates to Mus musculus. Kind of assay: Antitumor activity was evaluated by the increase in life span (I.L.S) against IMC carcinoma in mice at a dose of 0.27 mg/kg.
The test system of assay [8] is Mus musculus. Kind of assay: Antitumor activity was evaluated by the change in life span (day) against IMC carcinoma in mice at a dose of 0.27 mg/kg.
In assay [9] the test system is Mus musculus. Kind of assay: Antitumor activity was evaluated by the change in body weight against IMC carcinoma in mice at a dose of 0.27 mg/kg.
For assay [10], the system named is Mus musculus. In words: Antitumor activity was evaluated by the change in life span (day) against IMC carcinoma in mice at a dose of 1.8 mg/kg.
For assay [11], the system named is Mus musculus. In words: Antitumor activity was evaluated by the change in body weight against IMC carcinoma in mice at a dose of 1.8 mg/kg.
In assay [12] the test system is Mus musculus. In words: Antitumor activity was evaluated by the increase in life span (I.L.S) against IMC carcinoma in mice at a dose of 1.8 mg/kg.
For assay [13], the system named is Mus musculus. Kind of assay: Antitumor activity was evaluated by the change in life span (day) against IMC carcinoma in mice at a dose of 41.1 mg/kg.
Assay [14] has as its system Mus musculus. Kind of assay: Antitumor activity was evaluated by the change in body weight against IMC carcinoma in mice at a dose of 41.1 mg/kg.
The subject of assay [15] is Mus musculus. Kind of assay: Antitumor activity was evaluated by the increase in life span (I.L.S) against IMC carcinoma in mice at a dose of 41.1 mg/kg.
For assay [16], the system named is Mus musculus. Kind of assay: Antitumor activity was evaluated by the change in life span (day) against IMC carcinoma in mice at a dose of 20.7 mg/kg.
Assay [17] relates to Mus musculus. In words: Antitumor activity was evaluated by the increase in life span (I.L.S) against IMC carcinoma in mice at a dose of 20.7 mg/kg.
Assay [18] concerns Mus musculus. In words: Antitumor activity was evaluated by the change in body weight against IMC carcinoma in mice at a dose of 20.7 mg/kg.
Assay [19] deals with Mus musculus. In words: Antitumor activity was evaluated by the change in life span (day) against IMC carcinoma in mice at a dose of 30.0 mg/kg.
Assay [20] concerns Mus musculus. Kind of assay: Antitumor activity was evaluated by the change in body weight against IMC carcinoma in mice at a dose of 30.0 mg/kg.
For assay [21], the system named is Mus musculus. In words: Antitumor activity was evaluated by the increase in life span (I.L.S) against IMC carcinoma in mice at a dose of 30.0 mg/kg.

Regarding `C[C@H]1CC[C@]2(C)C(C(=O)O)=CCC[C@H]2[C@]1(C)CCc1ccoc1`, in the assay on Mus musculus [1], the ILS at 77.6 mg/kg amounted to 17%. For the same compound, the Life span with Mus musculus [2] was determined as 14.8 days. In the assay with Mus musculus [3], the “Change in body weight” value is listed as 1.6 g.
For the compound `C=C1CC[C@H]2C(C)(C)CCC[C@]2(C)[C@H]1CC/C(C)=C/CO`, the ILS at 9 mg/kg in the assay with Mus musculus [4] is 2%. Also, in the assay on Mus musculus [5], the Life span turned out to be 13 days. Further, in the assay with Mus musculus [6], the “Change in body weight” value is 1.4 g.
Turning to `C=C1CCC[C@@H]2[C@](C)(CC/C(C)=C/CO)[C@@H](C)CC[C@]12C`, the ILS at 0.27 mg/kg with Mus musculus [7] is -8%. The compound also had a Life span in the assay on Mus musculus [8] of 11.7 days. Besides, the “Change in body weight” value in the assay with Mus musculus [9] worked out at 1.9 g.
With `CC1=CCC[C@@H]2[C@@](C)(CC/C(C)=C/CO)[C@H](C)CC[C@]12C`, the Life span in the assay with Mus musculus [10] amounted to 12.3 days. Besides, in the assay with Mus musculus [11], the “Change in body weight” value was found to be 1.4 g. For the same compound, the ILS at 1.8 mg/kg with Mus musculus [12] was -3%.
`CC1=CCC[C@@H]2[C@@](C)(CC/C(C)=C/CO)[C@H](C)CC[C@@]12C` showed a Life span in the assay on Mus musculus [13] of 25.2 days. Also, the “Change in body weight” value with Mus musculus [14] turned out to be 0.1 g. Also, in the assay with Mus musculus [15], the ILS at 41.1 mg/kg worked out at 98%.
Regarding `C=C1CC[C@@H]2C(C)(C)CCC[C@@]2(C)[C@@H]1CC/C(C)=C/C(=O)O` [COPALIC ACID], the Life span in the assay on Mus musculus [16] was 14 days. Moreover, the ILS at 20.7 mg/kg in the assay on Mus musculus [17] was 10%. The “Change in body weight” value in the assay with Mus musculus [18] was 1.5 g.
As for `O=c1[nH]cc(F)c(=O)[nH]1` [FLUOROURACIL], in the assay on Mus musculus [19], the Life span was 18.5 days. Besides, the “Change in body weight” value with Mus musculus [20] is -1.8 g. The ILS at 30 mg/kg in the assay on Mus musculus [21] turned out to be 46%.

The values above are taken from ChEMBL document CHEMBL1127231, “The isolation and in vivo Potent Antitumor activity of clerodane diterpenoid from the oleoresin of the brazilian medicinal plant, copaifera langsdorfi desfon” (1994).
